Each structure is given as a SMILES string.

The test system of data set [1] is MYC-CTNNB1 tumor organoids. In words: Drug toxicity (viability) assay in murine HCC tumor organoids. In kind it is cell-based, mouse. The settings on record: screen in four tumor organoid models; 5 μM, viability after 3 days. As to the method: Liver tumors were minced and digested in sterile digestion media (PBS, 0.125 mg/mL collagenase from Clostridium histolyticum, 0.125 mg/mL dispase II, and 0.1 mg/mL DNaseI) for two hours at 37° C. Tumor dissociate was strained through a 70 μm strainer and washed with basal media (Advanced DMEM/F-12, 1% glutamine, 1% penicillin/streptomycin, 10 mM HEPES). Cells were counted, washed, resuspended at 50,000 cells per 50 μL Matrigel (Corning), and plated in 24 well plates. […]
For assays in organoid lines, 96 well plates were first coated with a 50:50 solution of basal media:Matrigel (35 μL/well), which polymerized for 15 minutes at 37° C. […] Viability was measured three days post drug administration with either luminescence from CellTiter-Glo or absorbance at 560 and 590 nm from resazurin. Viability data was analyzed by normalizing individual drug-treated well values to DMSO-treated wells. […]

A short description of data set [2]: 14-day oral gavage tissue toxicity study. In kind it is in vivo.
The nature of data set [3]: Dose escalation studies in mice. It is filed as in vivo, mouse. How it is done:
Mice were randomized into treatment groups, and daily oral dosing began one week after mice arrived at ISMMS. Body weight was recorded daily, and animals were monitored for any signs of sickness throughout the treatment period.
To rationalize a treatment regimen for WNTinib and understand potential toxicity, in vivo dose escalation was performed in three mouse strains (FIG. 8A, FIGS. 12A-12B). Mice were dosed daily for two weeks, and body weight loss was used as a proxy for systemic toxicity.

Data set [4] concerns AKS: APCKO::KRASG12D::SMAD4KO tumoroids. Nature of the data set: TiterGlo viability of CRC tumoroids (AKS). It is filed as cell-based, mouse. How it is done:
FIGS. 13A-13E show results pertaining to colorectal cancer. […] Data are column/gene normalized on a 0-100 scale with 0 being the lowest expression level and 100 the highest. FIG. 13D show full dose-response analysis of WNTinib's effects on the indicated organoid and tumoroid lines; viability was quantified using the TiterGlo assay after 72 hours. WT intestinal organoids are used as a control. […] Images of the intestine are shown as an example.
First, an APC deletion (A) was introduced, then a KRAS^G12D overexpression (AK) in combination with a SMAD4^KO was introduced to affect the TGFbeta pathway (AKS). Last, P53 was deleted to mimic the latest stages of metastatic disease progression (AKSP).

[5] abbreviates: dosed daily via oral gavage for two weeks, three mouse strains.

For `CNC(=O)c1cc(Oc2ccc(NC(=O)Nc3ccc(C(F)(F)C(F)(F)F)cc3)c(F)c2)ccn1` [WNTinib, 4-(3-fluoro-4-(3-(4-(perfluoroethyl)phenyl)ureido)phenoxy)-N-methylpicolinamide], the “activity in tumor organoid screen” value in data set [1] is “potent and selective activity”. Besides, the “pathological changes in brain, heart, esophagus, large intestine” value in data set [2] (60 mg/kg and 120 mg/kg oral gavage, 14 days) is “do not reveal pathological changes”. For the same molecule, in data set [2] (14 days daily treatment, up to 4-fold the therapeutic dose), the “toxicity in mouse intestine” value is “no toxicity was observed in mouse intestine”. Further, the tolerability of exposures entry in data set [3] (dose escalation and 20 mg/kg PK (FIG. 8A, 8B)) is given as “well-tolerated”. Further, in data set [3] (setting [5]), the body weight loss result was “weight loss did occur in a dose-dependent manner” and the signs of sickness entry is on record as “No mice showed signs of sickness”. Besides, the “viability of AKS CRC line” value in data set [4] (72 hours post treatment) is reported as “reduce the viability”. Moreover, the “organoid morphology of AKS organoids” value in data set [4] (WNTinib 3 μM, 72 hrs) is recorded as “induce a reversal of organoid morphology”.

(Values after patent publication US20230404985A1, “METHODS OF TREATING TUMORS AND CANCERS HAVING DYSREGULATED WNT SIGNALING PATHWAYS” (ICAHN SCHOOL OF MEDICINE AT MOUNT SINAI, priority 2020, published 2023).)
